Experiments:
[1] = ref Vogt et al., 2023; cited from earlier work
[2] = Blood plasma levels (LC-MS/MS) after DMT/harmine administration
Description: Blood samples were collected from the left antecubital vein at −30 (baseline), −15, 0, 15, 30, 45, 60, 90, 120, 180, 240, 300 and 360 min after the first DMT administration for analysis of blood plasma levels of harmine, DMT and the two major DMT metabolites 3-indole acetic acid (3-IAA) and N-methyl-tryptamine (NMT). […] Blood samples were immediately centrifuged for 10 min at 2000 RCF. Then, plasma was transferred to Eppendorf tubes, shock-frozen in liquid nitrogen (∼-196°C), and stored at −80°C until assayed.
For the sample preparation 200 µL of plasma were spiked with 50 µL internal standard (IS) mixture (40 ng/mL DMT-d6 and harmine-d3) and 50 µL methanol (MeOH). Proteins were precipitated by adding 400 µL of acetonitrile (ACN). The samples were shaken for 10 min and centrifuged for 5 min at 10,000 rpm. 350 μL of the supernatant was transferred into an auto-sampler vial, evaporated to dryness under a gentle stream of nitrogen at room temperature and reconstituted in 100 µL eluent-mixture (98:2, v/v). External calibrator and quality control (QC) samples were prepared accordingly, replacing the MeOH with a calibrator or QC solution mixtures. Calibrator and QC samples containing 3-IAA were prepared separately, replacing plasma with water. The calibration ranges were 0.5–500 ng/mL for DMT and DMT-N-oxide, 2.5–120 ng/mL for harmine, 1–80 ng/mL for harmol, 0.015–10 ng/mL for NMT and 35–3,000 ng/mL for 3-IAA.
Samples were analyzed on an ultra-high performance liquid chromatography (UHPLC) system (Thermo Fisher, San Jose, CA) coupled to a linear ion trap quadrupole mass spectrometer 5,500 (Sciex, Darmstadt, Germany). The mobile phases consisted of a mixture of water (eluent A) and ACN (eluent B), both containing 0.1% formic acid (v/v). Using a Kinetex C18 column 50 × 2.1 mm, 2.6 µm (Phenomenex, Aschaffenburg, Germany), the flow rate was set to 0.5 mL/min with the following gradient: starting conditions 98% eluent A, decreasing to 70% within 4 min, followed by a quick decrease to 5% within 1 min, holding for 0.5 min and returning to starting conditions for 1.5 min, resulting in a total runtime of 7 min. The mass spectrometer was operated in positive electrospray ionization mode with scheduled multiple reaction monitoring. The following transitions of precursor ions to product ions were selected as quantifier ions: DMT m/z 189→115, DMT-N-oxide m/z 205→117, harmine m/z 213→169, harmol m/z 199→131, NMT m/z 175→144 and 3-IAA m/z 176→103.

[3] = in vivo; cited from earlier work
[4] = design: method as in Turner and Merlis, 1959; settings: dose range 5–20 mg; ref Turner and Merlis, 1959; cited from earlier work
[5] = day 1, 250 mg oral harmine + 30 mg oral DMT
[6] = day 2, 250 mg oral harmine + 50 mg oral DMT
[7] = day 3, 150 mg buccal harmine + max 50 mg intranasal DMT
[8] = day 4, 200 mg buccal harmine + max 90 mg intranasal DMT

Compound	Peak of the mean plasma concentrations [2, 5] [ng/mL]	Peak of the mean plasma concentrations [2, 6] [ng/mL]	Peak of the mean plasma concentrations [2, 7] [ng/mL]	Peak of the mean plasma concentrations [2, 8] [ng/mL]	Duration of action [3] [h]	also measured
CN(C)CCc1c[nH]c2ccccc12 [DMT, N,N-dimethyltryptamine]	27.9 ± 15.5	23.6 ± 11.9	23.9 ± 5.0	33.1 ± 9.3	–	Plasma elimination half-life [1]: 5 to 10 min
CN(C)CCc1c[nH]c2cccc(OP(=O)(O)O)c12 [psilocybin]	–	–	–	–	4 to 6	–
COc1ccc2c(c1)[nH]c1c(C)nccc12 [harmine]	125.5 ± 111.2	104.8 ± 100.5	93.9 ± 33.5	132.4 ± 111.6	–	Tmax ([2]; human, plasma, po): 1 to 4.5 h
CN(C)CCc1c[nH]c2ccccc12 [DMT freebase, N,N-dimethyltryptamine]	–	–	–	–	–	Effect of intranasal administration [4]: ineffective
CCN(CC)C(=O)[C@@H]1C=C2c3cccc4[nH]cc(c34)C[C@H]2N(C)C1 [LSD]	–	–	–	–	10 to 12	–
